According to patent US10369130B2, “Antibacterial compounds” (AZIENDE CHIMICHE RIUNITE ANGELINI FRANCESCO A.C.R.A.F. …, priority 2014, dated 2019):
Counter-ions that a name gives are not always drawn.

What was measured:
Format in all cases: biochemical
Details in all cases: single concentration (200, 100 or 50 μM), in duplicate, versus the positive control (vehicle)
Topoisomerase IV [1] = target: T1, Topoisomerase IV (Staphylococcus aureus, UniProt P0C1S7+P0C1U9); assay: Topoisomerase IV decatenation assay (S. aureus)
T1 construct: purchased Inspiralis, UK
T1 sequence (P0C1S7 whole entry): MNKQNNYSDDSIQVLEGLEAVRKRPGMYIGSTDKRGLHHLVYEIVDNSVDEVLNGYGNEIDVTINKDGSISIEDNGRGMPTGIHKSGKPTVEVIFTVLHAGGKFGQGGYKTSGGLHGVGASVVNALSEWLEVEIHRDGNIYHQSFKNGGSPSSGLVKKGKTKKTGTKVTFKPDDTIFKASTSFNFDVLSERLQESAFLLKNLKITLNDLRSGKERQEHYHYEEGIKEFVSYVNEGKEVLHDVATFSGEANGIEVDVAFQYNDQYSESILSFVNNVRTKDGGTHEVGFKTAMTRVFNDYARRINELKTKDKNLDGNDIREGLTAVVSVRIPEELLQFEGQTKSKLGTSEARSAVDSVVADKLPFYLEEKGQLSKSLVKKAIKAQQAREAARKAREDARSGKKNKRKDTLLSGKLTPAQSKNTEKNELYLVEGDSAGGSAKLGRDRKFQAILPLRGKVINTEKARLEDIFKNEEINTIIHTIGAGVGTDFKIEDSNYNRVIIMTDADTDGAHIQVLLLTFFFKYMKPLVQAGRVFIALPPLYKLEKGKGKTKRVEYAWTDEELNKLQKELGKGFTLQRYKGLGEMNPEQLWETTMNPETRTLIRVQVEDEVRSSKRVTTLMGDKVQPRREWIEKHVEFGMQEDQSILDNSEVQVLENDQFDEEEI
T1 sequence (P0C1U9 whole entry): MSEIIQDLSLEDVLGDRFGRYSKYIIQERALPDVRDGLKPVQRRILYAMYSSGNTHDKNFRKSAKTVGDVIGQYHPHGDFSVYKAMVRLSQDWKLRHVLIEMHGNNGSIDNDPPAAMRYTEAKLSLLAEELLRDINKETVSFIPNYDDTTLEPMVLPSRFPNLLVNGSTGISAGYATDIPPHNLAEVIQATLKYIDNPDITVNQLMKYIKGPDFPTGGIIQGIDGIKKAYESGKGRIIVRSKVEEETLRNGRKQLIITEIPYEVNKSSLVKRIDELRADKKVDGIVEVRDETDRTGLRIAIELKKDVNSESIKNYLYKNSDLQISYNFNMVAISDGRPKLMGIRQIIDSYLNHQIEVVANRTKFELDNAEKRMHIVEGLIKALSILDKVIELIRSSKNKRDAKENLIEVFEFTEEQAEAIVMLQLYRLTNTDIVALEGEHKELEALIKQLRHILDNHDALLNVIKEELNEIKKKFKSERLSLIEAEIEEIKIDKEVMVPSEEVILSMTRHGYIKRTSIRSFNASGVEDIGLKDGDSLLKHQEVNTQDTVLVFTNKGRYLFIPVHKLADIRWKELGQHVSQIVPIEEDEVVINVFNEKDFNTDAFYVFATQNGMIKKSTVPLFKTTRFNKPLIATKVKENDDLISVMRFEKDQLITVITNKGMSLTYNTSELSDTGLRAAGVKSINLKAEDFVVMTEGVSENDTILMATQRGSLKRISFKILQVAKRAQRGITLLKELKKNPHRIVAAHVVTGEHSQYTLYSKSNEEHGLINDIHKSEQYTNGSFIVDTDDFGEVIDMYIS
Protocol: (§1) The above compounds were tested for the inhibition of the enzyme DNA gyrase in a gyrase supercoiling assay and for the inhibition of the enzyme topoisomerase IV in a decatenation assay, in both Gram positive and Gram negative bacteria, according to the following methods.
(§2) Both the assays were carried out according to a set-up method modified from the article to Blanche F, et al. “Differential Behaviors of Staphylococcus aureus and Escherichia coli Type II DNA Topoisomerases”, Antimicrob.
(§3) The compounds were screened at single concentration (200, 100 or 50 μM), in duplicate.
(§4) Ciprofloxacin and novobiocin were used as reference compounds, at single concentration of 200 and 50 μM, respectively.
(§5) Topoisomerase IV Decatenation Assay
(§6) S. aureus and E. coli Topoisomerase IV decatenation kits (Inspiralis, UK) were used. A master mix with a total volume sufficient for the number of reactions to perform was prepared with the following reagents: 5× assay buffer (50 mM HEPES-KOH (pH 7.6), 100 mM potassium glutamate, 10 mM magnesium acetate, 10 mM DTT, 1 mM ATP, 50 μg/ml albumin), kDNA substrate (200 ng/reaction), RNase-DNase free water. Aliquots of this mix were dispensed in each tube, then 10× compound stock solutions or vehicle control (DMSO), were added in each reaction tube.
(§7) Reaction was started with Topoisomerase IV enzyme (0.5 U/reaction) addition.
(§8) A sample added with an equal volume of dilution buffer was used as negative control (without enzyme).
(§9) The reaction tubes were gentle vortexed and incubated 30 minutes at 37° C. Each reaction was stopped by adding 30 μl of Stop Buffer and 30 μl of chloroform/isoamyl alcohol (24/1), briefly vortexed for 5-10 seconds and centrifuged at 20000×g for 2 minutes. Samples taken from the upper phase were loaded into 1% agarose gel and subjected to electrophoresis for 1 hour at 80V constant voltage in TAE (40 mM Tris-acetate, 2 mM EDTA).
(§10) Data acquisition and analysis. Due to the high molecular mass, kDNA could not enter an agarose gel under normal electrophoresis conditions, but remained in the wells. In the presence of Topo IV topoisomerase mini-circles (2.5 Kb) were released from kDNA by decatenation and were quickly and easily resolved in the gel at relatively high voltages.
(§11) Bands were visualized by ethidium bromide staining (dil 1:20000) for 30 minutes followed by destaining in distilled water for 10 minutes.
(§12) For single concentration screening assay, in order to evaluate the compounds activity on the enzymes, the bands of decatenated DNAs in the gel were photographed by a digital imaging system ImageQuant LAS 4000 (GE Healthcare) according to manufacturer's instructions.
(§13) The fluorescent intensity of each band was analyzed by ImageQuant TL software and it was expressed as volume (volume of the uncalibrated quantity of material in the image feature after subtraction of the background intensity by using rolling ball method).
(§14) Each band intensity was compared, as percentage, to vehicle sample band intensity, which served as positive control, on the same gel.
(§15) Inhibitory activity was expressed as percent of inhibition versus the positive control.

DNA gyrase [2] = target: T2, DNA gyrase (Staphylococcus aureus, UniProt P0A0K8+P20831); assay: DNA gyrase supercoiling assay (S. aureus)
T2 construct: purchased Inspiralis, UK
Protocol: as §1, §2, §3, §4
(§16) DNA Gyrase Supercoiling Assay.
(§17) Reagents from S. aureus and E. coli Gyrase Supercoiling Assay kits (Inspiralis, UK) were used. A master mix with a total volume sufficient for the number of reactions to perform was prepared with the following reagents: 5× assay buffer, relaxed pBR322 substrate (0.5 μg/reaction), RNase-DNase free water. Aliquotes of this mix were dispensed in each tube, then 10× compound stock solutions or vehicle control (DMSO), were added to each reaction tube.
(§18) Reaction was started with E. Coli (2 U/reaction) or S. aureus (1 U/reaction) gyrase enzyme addition.
as §8
(§19) The reaction tubes were gentle vortexed and incubated 30 minutes at 37° C. Each reaction was stopped by adding 30 μl of Stop Buffer and 30 μl chloroform/isoamyl alcohol (24/1), briefly vortexed for 5-10 seconds and centrifuged at 20000×g for 2 minutes. Samples were loaded onto 1% agarose gel and subjected to electrophoresis for 1 hour at 80V constant voltage in TAE (40 mM Tris-acetate, 2 mM EDTA).
(§20) Data acquisition and analysis. Treatment of relaxed pBR322 with DNA gyrase converted the relaxed topoisomers (DNAs of different linking number) to the supercoiled form of the plasmid, which migrates faster on an agarose gel. An upper band might also be visible, which consists of open-circular (nicked) DNA which is present in the relaxed substrate but co-migrates with some of the relaxed topoisomers.
as §11
(§21) In order to evaluate the compounds activity on the enzyme, the bands of supercoiled DNAs in the gel were photographed by a digital imaging system ImageQuant LAS 4000 (GE Healthcare) according to manufacturer's instructions.
(§22) The fluorescent intensity of each band was analysed by ImageQuant TL software and it was expressed as volume (volume of the uncalibrated quantity of material in the image feature after subtraction of the background intensity by using rolling ball method).
as §14, §15

DNA gyrase [3] = target: T3, DNA gyrase (Escherichia coli, UniProt P0AES4+P0AES6); assay: DNA gyrase supercoiling assay (E. coli)
T3 construct: purchased Inspiralis, UK
T3 sequence (P0AES4 whole entry, one chain of several): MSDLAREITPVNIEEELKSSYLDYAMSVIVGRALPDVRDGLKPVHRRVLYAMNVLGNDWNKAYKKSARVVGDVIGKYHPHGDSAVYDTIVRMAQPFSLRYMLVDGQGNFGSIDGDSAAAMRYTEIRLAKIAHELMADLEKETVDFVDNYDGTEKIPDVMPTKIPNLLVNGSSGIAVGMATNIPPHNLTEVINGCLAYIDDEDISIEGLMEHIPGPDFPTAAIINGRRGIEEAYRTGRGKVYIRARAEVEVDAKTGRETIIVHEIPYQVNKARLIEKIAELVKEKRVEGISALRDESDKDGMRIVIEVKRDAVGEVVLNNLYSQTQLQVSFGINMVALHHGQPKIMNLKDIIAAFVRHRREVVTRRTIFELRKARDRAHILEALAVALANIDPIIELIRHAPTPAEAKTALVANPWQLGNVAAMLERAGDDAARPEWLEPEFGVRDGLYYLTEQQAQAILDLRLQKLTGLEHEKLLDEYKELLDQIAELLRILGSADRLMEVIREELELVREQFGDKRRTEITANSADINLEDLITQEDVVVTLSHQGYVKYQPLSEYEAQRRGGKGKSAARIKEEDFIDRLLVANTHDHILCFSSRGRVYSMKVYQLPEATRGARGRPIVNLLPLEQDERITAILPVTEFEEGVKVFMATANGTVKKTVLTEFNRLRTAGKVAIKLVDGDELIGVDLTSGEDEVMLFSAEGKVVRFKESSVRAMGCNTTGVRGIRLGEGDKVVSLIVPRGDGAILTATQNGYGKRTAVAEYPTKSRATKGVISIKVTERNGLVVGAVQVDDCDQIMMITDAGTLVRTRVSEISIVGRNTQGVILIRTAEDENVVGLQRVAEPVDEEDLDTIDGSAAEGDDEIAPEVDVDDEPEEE
Protocol: as §1, §2, §3, §4, §16, §17, §18, §8, §19, §20, §11, §21, §22, §14, §15

Topoisomerase IV [4] = target: T4, Topoisomerase IV (Escherichia coli, UniProt P0AFI2+P20083); assay: Topoisomerase IV decatenation assay (E. coli)
T4 construct: purchased Inspiralis, UK
T4 sequence (P20083 whole entry): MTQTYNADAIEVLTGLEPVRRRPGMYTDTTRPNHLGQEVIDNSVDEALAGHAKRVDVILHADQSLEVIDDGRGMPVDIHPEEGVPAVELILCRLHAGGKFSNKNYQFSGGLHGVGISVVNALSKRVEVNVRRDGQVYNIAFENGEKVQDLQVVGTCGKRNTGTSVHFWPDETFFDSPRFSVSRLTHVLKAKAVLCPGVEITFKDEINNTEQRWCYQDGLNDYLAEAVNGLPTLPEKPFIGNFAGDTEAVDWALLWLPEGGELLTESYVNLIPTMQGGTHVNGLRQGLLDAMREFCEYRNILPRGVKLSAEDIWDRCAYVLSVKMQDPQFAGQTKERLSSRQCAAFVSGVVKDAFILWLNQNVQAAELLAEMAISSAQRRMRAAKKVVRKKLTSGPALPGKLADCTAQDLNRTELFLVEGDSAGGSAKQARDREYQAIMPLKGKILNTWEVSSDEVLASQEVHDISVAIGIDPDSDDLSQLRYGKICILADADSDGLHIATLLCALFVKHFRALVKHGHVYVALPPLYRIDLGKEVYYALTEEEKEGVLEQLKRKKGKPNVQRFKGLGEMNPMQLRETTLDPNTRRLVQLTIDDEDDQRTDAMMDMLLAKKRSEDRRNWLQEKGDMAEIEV
T4 sequence (P0AFI2 whole entry): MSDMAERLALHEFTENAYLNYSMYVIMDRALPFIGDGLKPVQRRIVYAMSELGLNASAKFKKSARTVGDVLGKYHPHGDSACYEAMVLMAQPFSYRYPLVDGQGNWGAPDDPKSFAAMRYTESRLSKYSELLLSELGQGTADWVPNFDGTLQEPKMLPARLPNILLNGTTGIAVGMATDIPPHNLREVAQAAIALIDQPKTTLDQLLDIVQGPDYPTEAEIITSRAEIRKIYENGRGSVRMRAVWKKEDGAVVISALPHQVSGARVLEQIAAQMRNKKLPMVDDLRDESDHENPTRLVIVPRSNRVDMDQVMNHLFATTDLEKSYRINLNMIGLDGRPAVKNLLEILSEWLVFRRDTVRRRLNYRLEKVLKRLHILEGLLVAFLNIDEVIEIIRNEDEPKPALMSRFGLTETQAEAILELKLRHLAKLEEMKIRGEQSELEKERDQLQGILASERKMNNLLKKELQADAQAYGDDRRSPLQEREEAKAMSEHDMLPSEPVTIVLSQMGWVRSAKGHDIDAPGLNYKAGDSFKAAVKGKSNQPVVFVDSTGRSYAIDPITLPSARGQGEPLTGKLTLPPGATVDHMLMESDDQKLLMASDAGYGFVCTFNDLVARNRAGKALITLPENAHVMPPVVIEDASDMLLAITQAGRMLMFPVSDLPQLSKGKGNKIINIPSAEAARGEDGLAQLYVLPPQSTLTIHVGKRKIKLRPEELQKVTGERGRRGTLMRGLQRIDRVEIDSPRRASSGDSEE
Protocol: as §1, §2, §3, §4, §5, §6, §7, §8, §9, §10, §11, §12, §13, §14, §15

Row | Structure (SMILES) | % inhibition Topo IV (Topoisomerase IV [1]) | % inhibition DNA gyrase (DNA gyrase [2]) | % inhibition DNA gyrase (DNA gyrase [3]) | % inhibition Topo IV (Topoisomerase IV [4])
1 | O=C(NCCN1CCN(c2nccc3ccccc23)CC1)c1cc(=O)oc2ccccc12 [Compound 75, N-{2-[4-(isoquinolin-1-yl)piperazin-1-yl]ethyl}-2-oxo-2H-chromene-4-carboxamide hydrochloride] | n/a (n/a = not active) | 61% | 69% | n/a (n/a = not active)
2 | COC(=O)C1CN(c2nccc3ccccc23)CCN1CCCNc1cc(=O)oc2ccccc12 (stereo not drawn) [Compound 81, methyl 4-(isoquinolin-1-yl)-1-{3-[(2-oxo-2H-chromen-4-yl)amino]propyl}piperazine-2-carboxylate hydrochloride] | n/a (n/a = not active) | n/a (n/a = not active) | 80% | n/a (n/a = not active)
3 | O=C(O)C1CN(c2nccc3ccccc23)CCN1CCCNc1cc(=O)oc2ccccc12 (stereo not drawn) [Compound 82, 4-(isoquinolin-1-yl)-1-{3-[(2-oxo-2H-chromen-4-yl)amino]propyl}piperazine-2-carboxylic acid hydrochloride] | n/a (n/a = not active) | 82% | 85% | n/a (n/a = not active)
4 | O=c1cc(NCCCN2CCN(c3nccc4ccccc34)CC2CC(F)(F)F)c2ccccc2o1 (stereo not drawn) [Compound 83, 4-({3-[4-(isoquinolin-1-yl)-2-(2,2,2-trifluoroethyl)piperazin-1-yl]propyl}amino)-2H-chromen-2-one hydrochloride] | n/a (n/a = not active) | n/a (n/a = not active) | 69% | n/a (n/a = not active)
5 | COc1ccc2c(NCCCN3CCN(c4nccc5ccccc45)CC3)cc(=O)oc2c1 [Compound 85, 4-({3-[4-(isoquinolin-1-yl)piperazin-1-yl]propyl}amino)-7-methoxy-2H-chromen-2-one hydrochloride] | n/a (n/a = not active) | 86% | 78% | n/a (n/a = not active)
6 | O=c1oc2ccccc2cc1NCCCN1CCN(c2nccc3ccccc23)CC1 [Compound 87, 3-({3-[4-(isoquinolin-1-yl)piperazin-1-yl]propyl}amino)-2H-chromen-2-one hydrochloride] | n/a (n/a = not active) | 96% | 79% | n/a (n/a = not active)
7 | Cc1cccc2oc(=O)cc(NCCCN3CCN(c4nccc5ccc(F)cc45)CC3)c12 [Compound 96, 4-({3-[4-(7-fluoroisoquinolin-1-yl)piperazin-1-yl]propyl}amino)-5-methyl-2H-chromen-2-one hydrochloride] | n/a (n/a = not active) | 91% | 88% | n/a (n/a = not active)
8 | Cc1c(NCCCN2CCN(c3nccc4ccc(F)cc34)CC2)c2ccccc2oc1=O [Compound 97, 4-({3-[4-(7-fluoroisoquinolin-1-yl)piperazin-1-yl]propyl}amino)-3-methyl-2H-chromen-2-one hydrochloride] | n/a (n/a = not active) | 86% | 85% | n/a (n/a = not active)
9 | O=c1cc(NCCCN2CCN(c3nccc4ccc(F)cc34)CC2)c2ccc(O)cc2o1 [Compound 107, 4-({3-[4-(7-fluoroisoquinolin-1-yl)piperazin-1-yl]propyl}amino)-7-hydroxy-2H-chromen-2-one hydrochloride] | n/a (n/a = not active) | 74% | 92% | n/a (n/a = not active)
10 | O=C(CN1CCC(Nc2cc(=O)oc3ccccc23)CC1)NCc1nccc2ccccc12 [Compound 118, N-(isoquinolin-1-ylmethyl)-2-{4-[(2-oxo-2H-chromen-4-yl)amino]piperidin-1-yl}acetamide] | n/a (n/a = not active) | n/a (n/a = not active) | 78% | n/a (n/a = not active)
11 | O=c1cc(NCCCN2CCN(c3nccc4ccc(F)cc34)CC2)c2c(o1)CCNC2 [Compound 122, 4-({3-[4-(7-fluoroisoquinolin-1-yl)piperazin-1-yl]propyl}amino)-5,6,7,8-tetrahydro-2H-pyrano[3,2-c]pyridin-2-one hydrochloride] | n/a (n/a = not active) | n/a (n/a = not active) | 58% | n/a (n/a = not active)
12 | C[N+]1(CCCc2nccc3ccccc23)CCC(Nc2cc(=O)oc3ccccc23)CC1 (stereo not drawn) [Compound 123] | n/a (n/a = not active) | n/a (n/a = not active) | 52% | n/a (n/a = not active)
13 | O=C(O)C[C@@H](NC[C@@H](O)CN1CCN(c2nccc3ccc(F)cc23)CC1)c1ccccc1 [Compound 141, (3R)-3-({(2R)-3-[4-(7-fluoroisoquinolin-1-yl)piperazin-1-yl]-2-hydroxypropyl}amino)-3-phenylpropanoic acid] | n/a (n/a = not active) | 65% | n/a (n/a = not active) | n/a (n/a = not active)
14 | O=C(O)C[C@@H](NC[C@H](O)CN1CCN(c2nccc3ccc(F)cc23)CC1)c1ccccc1 [Compound 142, (3R)-3-({(2S)-3-[4-(7-fluoroisoquinolin-1-yl)piperazin-1-yl]-2-hydroxypropyl}amino)-3-phenylpropanoic acid] | n/a (n/a = not active) | 52% | n/a (n/a = not active) | n/a (n/a = not active)
15 | O=C(O)CC(NCCNC1CCN(c2nccc3ccc(F)cc23)CC1)C1CCCCC1 (stereo not drawn) [Compound 190, lithium 3-cyclohexyl-3-[(2-{[1-(7-fluoroisoquinolin-1-yl)piperidin-4-yl]amino}ethyl)amino]propanoate] | n/a (n/a = not active) | 73% | 61% | n/a (n/a = not active)
